We go through two compounds from patent US20050233973A1, “Tri-peptides for antidepressant applications” (priority 1997, published 2005).

One assay relates to control HEK293 cells. The assay is described as follows: Intracellular calcium response (fura2), non-transfected control cells. The format is cell-based. The conditions noted are these: Ca2+-free buffer. The protocol:
The ability of peptides of the formula pGlu-[…] to stimulate an intracellular calcium response in transfected HEK293 of Example 5 was evaluated, to determine whether the peptides behave as agonists. […] The coverslip was then rinsed and placed in a Sykes-Moore chamber covered with 1 mL Ca^2+ and Mg^2+ free HBSS. Imaging was performed on a Nikon inverted microscope with a DAGE CCD72 camera and […] intensifier system. Cells were alternately excited at 340 and 380 nm and emission was measured at 490 nm; 340/380 ratios were obtained every 1.2 seconds and analyzed using Image-1 software from Universal Imaging Corporation. […] Peak responses from between 33 and 120 individual cells were averaged, and responses to TRH were measured with each set of cells as a standard. Most of the peptides caused a small increase in intracellular Ca^2+ when added to control HEK293 cells bathed in Ca^2+-containing medium, but with the exception of the R^2=Leu peptide, none of them evoked an appreciable Ca^2+ response in Ca^2+-free HBSS, which was used for all experiments.

The target in another assay is T1, TRH receptor-1 (TRHR-1) (Mus musculus, UniProt P21761).
T1 sequence (P21761 1-393): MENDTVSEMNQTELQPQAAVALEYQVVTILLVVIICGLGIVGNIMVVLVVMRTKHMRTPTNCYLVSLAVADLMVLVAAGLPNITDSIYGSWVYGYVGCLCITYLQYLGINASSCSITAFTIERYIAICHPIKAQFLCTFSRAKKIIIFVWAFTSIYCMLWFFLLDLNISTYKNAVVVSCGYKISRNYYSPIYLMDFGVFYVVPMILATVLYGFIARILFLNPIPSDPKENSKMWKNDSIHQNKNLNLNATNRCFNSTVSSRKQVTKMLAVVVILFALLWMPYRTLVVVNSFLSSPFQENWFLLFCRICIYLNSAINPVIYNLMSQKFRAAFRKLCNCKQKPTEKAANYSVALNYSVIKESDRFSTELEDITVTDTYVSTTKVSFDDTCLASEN
The assay is described as follows: [3H]TRH competition binding, HEK293 cells expressing TRHR-1.

For assay [1], the system named is Porsolt forced swim animal model of depression. The assay is described as follows: Porsolt swim test. The format is in vivo, rats.
Protocol: Total immobility time versus swim time was recorded. Both high-dose (0.5 mg/kg sc) and low-dose injections (0.05 mg/kg ip) were used.
Another assay addresses T2, TRH receptor-2 (TRHR-2) (Rattus norvegicus, UniProt A6IZR3).
T2 sequence (A6IZR3 1-352): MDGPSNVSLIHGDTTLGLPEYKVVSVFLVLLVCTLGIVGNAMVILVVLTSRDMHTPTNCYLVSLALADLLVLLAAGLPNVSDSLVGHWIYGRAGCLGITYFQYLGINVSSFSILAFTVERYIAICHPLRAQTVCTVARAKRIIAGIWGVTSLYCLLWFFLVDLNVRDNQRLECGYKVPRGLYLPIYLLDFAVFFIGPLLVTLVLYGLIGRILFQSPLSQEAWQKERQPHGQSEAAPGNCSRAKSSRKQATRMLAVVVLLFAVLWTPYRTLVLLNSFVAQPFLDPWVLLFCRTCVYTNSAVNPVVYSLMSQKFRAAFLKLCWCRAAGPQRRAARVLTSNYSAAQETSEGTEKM
Put plainly: [3H]TRH competition binding, HEK293 cells expressing TRHR-2.

The target of assay [2] is T3, HEK293 cells expressing TRHR-2 (Rattus norvegicus, UniProt A6IZR3).
T3 sequence (A6IZR3 1-352): T2 sequence (A6IZR3 1-352)
Put plainly: Intracellular calcium response (fura2), TRHR-2 cells. The format is cell-based.

Assay [3] concerns CR-V3-B53 antibody (raised to TRH). Particulars: tracer 125I-TRH; assay standard = 1.00.
Assay [4] has as its target T4, HEK293 cells expressing TRHR-1 (Mus musculus, UniProt P21761).
T4 construct: expressed in transfected cells
T4 sequence (P21761 1-393): T1 sequence (P21761 1-393)
Put plainly: Intracellular calcium response (fura2), TRHR-1 cells. It is filed as cell-based.

Assay [5] has as its system 465B12 antibody (raised to TRH). Particulars: tracer 125I-TRH; assay standard = 1.00.
The nature of assay [6]: Serum T3 and T4 levels in Porsolt test animals. It is filed as in vivo, rats. Particulars: animals of the Porsolt test. The procedure: A Porsolt swim test with rats was used to examine the antidepressant effects of peptides where R^2=Glu or R^2=Phe, as set forth in Lloyd, R. L. et al., Pharamcology, Biochemistry and Behavior, 70:15-22 (2001), incorporated herein by reference. […] No effect of the blocking variable or interaction of the blocking variable with treatment was found.
Using the animal models of Example 11, T3 (triiodothyronine) and T4 (thyroxine) levels were tested. Serum T3 was determined by […], using fluorescence polarization of a fixed concentration of a fluorescent analog of T3 as provided in the Abbott IMX System. T4 was also determined by radioimmunoassay. With EEP, no changes in T3 were observed. […] With ELP (where R^2 is Leu) and EFP there was an increase in T3, but this was not correlated to swim scores, with ELP not producing a behavioral effect, and EFP producing a marginal behavioral effect.

Assay [7] deals with EEP (R^2=Glu) antibody (580B6). Particulars: tracer 125I-TRH; assay standard = 1.00.
The subject of assay [8] is pentobarbital-anesthetized rats. The format is in vivo, male Wistar rats. The conditions noted are these: IC injection of 10 μg. The procedure:
Twenty minutes after loss of the righting reflex, 10 μL of either sterile saline or peptide of this invention (1 or 10 μg/10 μL sterile saline) was administered by intracisternal (IC) injection. The time from IC injection to recovery of the righting reflex, as measured three times within 10 seconds, was recorded.

A short description of assay [9]: Binding capacity / concentration in brain areas.

Non-standard residues stand in square brackets, D forms with d. Residues, ends and D or L forms follow the SMILES beside them. pGlu = O=C1CC[C@@H](C(=O)O)N1

`CC(C)C[C@H](NC(=O)[C@@H]1CCC(=O)N1)C(=O)N1CCC[C@H]1C(N)=O` [R^2 = Leu, pGlu-Leu-Pro-NH2] ([pGlu]-Leu-Pro-NH2): in the assay on control HEK293 cells, the “Ca2+ response” value is listed as “small Ca^2+ transient”. In addition, the IC50 (in general, the concentration that inhibits the measured activity by half) on TRH receptor-1 (TRHR-1) is 5.47 µM; on TRH receptor-2 (TRHR-2) it was 1.95 µM. In addition, in [1] (dose not stated), the “antidepressant effect compared to saline (total immobility time)” value is “statistically meaningful behavioral effects were not observed”. The “ability to block the Ca2+ response to low concentrations of TRH (antagonism)” value in assay [2] and in [4] was “no effect was found” in each case. The figures for the “relative potency for displacement of assay tracer” value in [3], in assay [5] and in [7] were 0.088, 0.301 and 5.00, respectively. In addition, in assay [6], the “change in T3” value was “increase”. Besides, the “reduction in pentobarbitol-induced sleep time (analeptic effect)” value in assay [8] is listed as “had an analeptic effect”.
As to [pGlu]-Lys-Pro-NH2 [EKP], the “binding capacity in limbic and motor areas of the brain compared to the other TRH analogs” value in assay [9] was “significant binding capacity”. In addition, the “antidepressant effect compared to saline (total immobility time)” value in [1] (low-dose (0.05 mg/kg ip), three injections) is “effective”. For the same compound, in assay [6], the “increase in T3” value worked out at 48% and the “increase in T4” value is reported as 57%.
